# Laboratory results published in patent US20200337993A1, “INTRACANALICULAR HYDROGEL INSERTS FOR THE DELIVERY OF ANESTHETICS” (Ocular Therapeutix, Inc., priority 2019, published 2020).
# Read-outs that look alike come from different tables or passages of the source.
# Key:
# [1] = Bupivacaine concentrations in tear fluid after intracanalicular administration (LC/MS of Schirmer strip samples); format: in vivo, beagle dogs; conditions: female, beagle, dog, other: intracanalicular, 160 μg; for concentration at 2 day: Day 2, N=3, intracanalicular Inventive Composition insert; for concentration at 3 day: Day 3, N=6, intracanalicular Inventive Composition insert; for concentration at 4 day: Day 4, N=6, intracanalicular Inventive Composition insert; for concentration at 5 day: Day 5, N=3, intracanalicular Inventive Composition insert
# Experimental: Corneal wounds were created in both eyes (OU) of ten female beagle dogs on Day 0 using epithelial debridement. Animals were post-operatively monitored and treated with eye drops. The Inventive Composition (IC) containing approximately 160 μg of bupivacaine was inserted into the lower or upper lid punctum of one eye of all ten dogs on Day 0 after corneal wounding and removed on Day 7 after wounding. Clinical ophthalmic examinations (slit-lamp biomicroscopy) were conducted daily on weekdays through Day 7. Fluorescein staining was performed and slit-lamp photographs were taken on Days 0, 3, 5, and 7 (Group 1) or on Days 0, 2, 4, and 7 (Group 2). Corneal esthesiometry was performed at baseline and on Days 0, 3-7, 10-14, 31-35, and 38-42 (Group 1) or on Days 0-4, 7-11, 14, 28-32, and 35-39 (Group 2). General health observations and gross ocular observations were performed daily from Day 1 through Day 11 (Group 1) or Day 8 (Group 2). Body weights were recorded prior to dosing and on Day 7. Tears were collected on Days 3, 4, and 5 (Group 1) or on Days 1, 2, 3, and 4 (Group 2). The two groups were staggered in order to collect tear film samples on days 1, 2, 3, 4 and 5 using Schirmer test strips. Tear film samples were collected in the morning prior to administration of drops, in order to avoid dilution of the samples. Pre and post weights were collected on the tear film strips, and samples were sent to PharmOptima, LLC (Portage, Mich.) for bioanalysis via LC/MS. The PK portion of the study measured concentrations of bupivacaine released from the Inventive Composition into the tear fluid over 5 days following intracanalicular administration in beagle dogs and results are presented in Table 3. Tear fluid samples were collected pre-drop administration to prevent dilution of the bupivacaine concentrations. The PK profile indicates elevated concentrations of bupivacaine in the tear fluid through 4 days with a decrease observed at 5 days.
# [2] = In vitro release of bupivacaine from the Inventive Composition in PBS, pH 7.4 at 37° C.; format: physicochemical
# [3] = read-out: Bupivacaine concentration in tear fluid, Average
# [4] = read-out: Bupivacaine concentration in tear fluid, Maximum
# [5] = read-out: Bupivacaine concentration in tear fluid, Median
# [6] = read-out: Bupivacaine concentration in tear fluid, Minimum
compound,measurement,setting,value
"CCCCN1CCCCC1C(=O)Nc1c(C)cccc1C (stereo not shown) [Bupivacaine, bupivacaine]",concentration at 1 day,"[1]; Day 1, N=3, intracanalicular Inventive Composition insert (approx. 160 μg bupivacaine), Groups 1 and 2, read-out: Bupivacaine concentration in tear fluid, Average",780 ng/mL
same,concentration at 1 day,"[1]; Day 1, N=3, intracanalicular Inventive Composition insert, read-out: Bupivacaine concentration in tear fluid, Maximum",1520 ng/mL
same,concentration at 1 day,"[1]; Day 1, N=3, intracanalicular Inventive Composition insert, read-out: Bupivacaine concentration in tear fluid, Median",550 ng/mL
same,concentration at 1 day,"[1]; Day 1, N=3, intracanalicular Inventive Composition insert, read-out: Bupivacaine concentration in tear fluid, Minimum",280 ng/mL
same,concentration at 2 day,[1]; [3],380 ng/mL
same,concentration at 2 day,[1]; [4],770 ng/mL
same,concentration at 2 day,[1]; [5],230 ng/mL
same,concentration at 2 day,[1]; [6],150 ng/mL
same,concentration at 3 day,[1]; [3],740 ng/mL
same,concentration at 3 day,[1]; [4],1520 ng/mL
same,concentration at 3 day,[1]; [5],590 ng/mL
same,concentration at 3 day,[1]; [6],100 ng/mL
same,concentration at 4 day,[1]; [3],570 ng/mL
same,concentration at 4 day,[1]; [4],1180 ng/mL
same,concentration at 4 day,[1]; [5],450 ng/mL
same,concentration at 4 day,[1]; [6],80 ng/mL
same,concentration at 5 day,[1]; [3],250 ng/mL
same,concentration at 5 day,[1]; [4],430 ng/mL
same,concentration at 5 day,[1]; [5],230 ng/mL
same,concentration at 5 day,[1]; [6],100 ng/mL
same,Bupivacaine Release Rate,[2]; in vitro sampling period 0-1 hours (burst phase),14.6 µg/h
same,Bupivacaine Release Rate,[2]; in vitro sampling period 1-18 hours,3.4 µg/h
same,Bupivacaine Release Rate,[2]; in vitro sampling period 18-26 hours,1.5 µg/h
same,Bupivacaine Release Rate,[2]; in vitro sampling period 26-42 hours,1.1 µg/h
same,Bupivacaine Release Rate,[2]; in vitro sampling period 42-68 hours,1.0 µg/h
same,Bupivacaine Release Rate,[2]; in vitro sampling period 68-93 hours,0.6 µg/h
same,Bupivacaine Release Rate,[2]; in vitro sampling period 93-115 hours,0.4 µg/h
same,Bupivacaine Release Rate,[2]; in vitro sampling period 115-168 hours,0.1 µg/h
